Consider 18 compounds from patent US20090275610A1, “TRICYCLIC OPIOID MODULATORS” (priority 2005, published 2009).

“And” between values parts separate entries of the source, which are not always exact repeats. Identical values can stand only once. Like-named read-outs stand apart in the source and are kept apart here.

One test addresses T1, delta opioid receptor (Rattus norvegicus, UniProt P33533).
T1 construct: the forebrains were homogenized in Tris buffer in a Teflon®-glass homogenizer; from tissue; host or cells: forebrain of male Wistar rats (particulate membrane preparation)
Briefly: Rat brain delta opioid receptor binding assay. The following applies: rat forebrain membranes, [3H]DPDPE or [3H]naltrindole, 25° C., 2.5 h. How it is done: Rat Brain Delta Opioid Receptor Binding Assay
(§1) Procedure: Male, Wistar rats (150-250 g, VAF, Charles River, Kingston, N.Y.) were killed by CO2, and their brains removed and placed immediately in ice cold Tris HCl buffer (50 mM, pH 7.4). The forebrains were separated from the remainder of the brain by a coronal transection, beginning dorsally at the colliculi and passing ventrally through the midbrain-pontine junction. After dissection, the forebrains were homogenized in Tris buffer in a Teflon®-glass homogenizer. The homogenate was diluted to a concentration of 1 g of forebrain tissue per 80 mL Tris and centrifuged at 39,000×g for 10 min. The pellet was resuspended in the same volume of Tris buffer containing 5 mM MgCl2 with several brief pulses from a Polytron homogenizer. This particulate preparation was used for the delta opioid binding assays.
Analysis: The data from the scintillation counter were used to calculate either the % inhibition compared to control binding (when only a single concentration of test compound was evaluated) or a Ki value (when a range of concentrations was tested). Percent inhibition was calculated as: [(total dpm−test compound dpm)/(total dpm−nonspecific dpm)]*100. Kd and Ki values were calculated using GraphPad PRISM data analysis program.

Another test concerns the target T2, mu opioid receptor (Rattus norvegicus, UniProt P33535).
T2 construct: the forebrains were homogenized in Tris buffer in a Teflon®-glass homogenizer; from tissue; host or cells: forebrain of male Wistar rats (particulate membrane preparation)
Nature of the test: Rat brain mu opioid receptor binding assay. The settings on record: rat forebrain membranes, [3H]DAMGO, 25° C., 2.5 h. As for the experimental part: Rat Brain Mu Opioid Receptor Binding Assay
as §1
Analysis: The data from the scintillation counter were used to calculate either the % inhibition compared to control binding (when only a single concentration of test compound was evaluated) or a Ki value (when a range of concentrations tested). Percent inhibition was calculated as: [(total dpm−test compound dpm)/(total dpm−nonspecific dpm)]*100. Kd and Ki values were calculated using GraphPad PRISM data analysis program.

Test [1] deals with T3, delta opioid receptor (NG108-15 cell membranes) (Mus musculus, UniProt P32300).
T3 construct: NG108-15 cell membranes were purchased from Applied Cell Sciences (Rockville, Md.); host or cells: NG108-15 cell membranes (purchased)
Briefly: [35S]GTPγS binding assay in NG108-15 cell membranes (delta opioid). It counts as biochemical. The following applies: for delta GTPγS binding Rel Eff: value in parentheses. As for the experimental part:
Functional Assay: [^35S]GTPγS Binding Assay in NG108-15 Cell Membranes (Delta Opioid)
Methods: NG108-15 cell membranes were purchased from Applied Cell Sciences (Rockville, Md.). A sample (8 mg/mL) of membrane protein suspended in 10 mM TRIS-HCl pH 7.2, 2 mM EDTA, 10% sucrose. Membranes were maintained at 4-8° C. A 1 mL volume of membranes was added into 10 mL cold binding assay buffer. The assay buffer contained 50 mM Tris, pH 7.6, 5 mM MgCl2, 100 mM NaCl, 1 mM DTT and 1 mM EGTA. The membrane suspension was homogenized twice with a Polytron, and centrifuged at 3000 rpm for 10 min. The supernatant was then centrifuged at 18,000 rpm for 20 min. Ten mL assay buffer was added into the pellet containing tube. The pellet and buffer were mixed with a Polytron.
Incubation procedure: The pellet membranes (75 μg/mL) were preincubated with SPA (10 mg/mL) at 25° C. for 45 min in the assay buffer. The SPA (5 mg/mL) coupled with membranes (37.5 μg/mL) was then incubated with 0.1 nM [^35S]GTPγS in the same Tris buffer containing 100 μM GDP in total volume of 200 μL. Increasing concentrations of receptor agonists were used to stimulate [^35S]-GTPγS binding. The basal binding was tested in the absence of agonists and non-specific binding was tested in the presence of 10 μM unlabeled GTPγS. The data were analyzed on a Packard Top Count.
% of Basal=(stimulated−non specific)*100/(basal−non specific).
(§2) EC50 values were calculated using GraphPad Prism.
On the technique in general: GTPγS is a poorly hydrolysed GTP analogue; its binding reports G protein activation.

For test [2], the target named is T4, hMOR (CHO-hMOR cell membranes) (Homo sapiens, UniProt P35372).
T4 construct: host or cells: CHO cells expressing hMOR (purchased membranes)
Nature of the test: [35S]GTPγS binding assay in CHO-hMOR cell membranes. In kind it is biochemical. The following applies: for mu GTPγS binding Rel Eff: value in parentheses. How it is done:
Functional Assay: [^35S]GTPγS Binding Assays in CHO-hMOR Cell Membranes
Methods: CHO-hMOR cell membranes were purchased from Receptor Biology, Inc. (Baltimore, Md.). About 10 mg/mL of membrane protein was suspended in 10 mM TRIS-HCl pH 7.2, 2 mM EDTA, 10% sucrose, and the suspension kept on ice. A 1 mL volume of membranes was added to 15 mL cold binding assay buffer containing 50 mM HEPES, pH 7.6, 5 mM MgCl2, 100 mM NaCl, 1 mM DTT and 1 mM EDTA. The membrane suspension was homogenized with a Polytron and centrifuged at 3,000 rpm for 10 min. The supernatant was then centrifuged at 18,000 rpm for 20 min. The pellet was resuspended in 10 mL assay buffer with a Polytron. The membranes were preincubated with wheat germ agglutinin coated SPA beads (Amersham) at 25° C. for 45 min in the assay buffer. The SPA bead (5 mg/mL) coupled membranes (10 μg/mL) were then incubated with 0.5 nM [^35S]GTPγS in the assay buffer. […] A range of concentrations of receptor agonist was used to stimulate [^35S]GTPγS binding. Both basal and non-specific binding was tested in the absence of agonist; non-specific binding determination included 10 μM unlabeled GTPγS.
Compounds were tested for function as antagonists by evaluating their potential to inhibit agonist-stimulated GTPγS binding. Radioactivity was quantified on a Packard TopCount. The following parameters were calculated:
as §2

Where [3] appears, read: rDOR (Ki, nM): Rat delta opioid receptor binding constant.
Setting [4] is: rMOR (Ki, nM): Rat mu opioid receptor binding constant.
Setting [5] is: read-out: rDOR (Ki, nM): Rat delta opioid receptor binding constant.
Where [6] appears, read: read-out: rMOR (Ki, nM): Rat mu opioid receptor binding constant.
Setting [7] is: read-out: delta GTPγS binding EC50.
Where [8] appears, read: CHO-hMOR cell membranes, read-out: mu GTPγS binding EC50.

T2 sequence (P33535 whole entry): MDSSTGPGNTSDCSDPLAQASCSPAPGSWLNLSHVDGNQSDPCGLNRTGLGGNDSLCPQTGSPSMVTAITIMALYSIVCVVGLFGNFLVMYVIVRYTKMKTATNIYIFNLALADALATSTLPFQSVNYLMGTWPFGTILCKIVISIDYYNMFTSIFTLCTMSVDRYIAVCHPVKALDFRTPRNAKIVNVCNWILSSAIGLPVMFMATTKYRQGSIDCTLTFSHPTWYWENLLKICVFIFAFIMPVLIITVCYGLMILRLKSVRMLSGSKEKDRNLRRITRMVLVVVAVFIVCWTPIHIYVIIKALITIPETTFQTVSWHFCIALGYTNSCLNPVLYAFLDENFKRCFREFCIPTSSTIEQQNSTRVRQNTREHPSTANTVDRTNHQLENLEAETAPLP
T3 sequence (P32300 whole entry): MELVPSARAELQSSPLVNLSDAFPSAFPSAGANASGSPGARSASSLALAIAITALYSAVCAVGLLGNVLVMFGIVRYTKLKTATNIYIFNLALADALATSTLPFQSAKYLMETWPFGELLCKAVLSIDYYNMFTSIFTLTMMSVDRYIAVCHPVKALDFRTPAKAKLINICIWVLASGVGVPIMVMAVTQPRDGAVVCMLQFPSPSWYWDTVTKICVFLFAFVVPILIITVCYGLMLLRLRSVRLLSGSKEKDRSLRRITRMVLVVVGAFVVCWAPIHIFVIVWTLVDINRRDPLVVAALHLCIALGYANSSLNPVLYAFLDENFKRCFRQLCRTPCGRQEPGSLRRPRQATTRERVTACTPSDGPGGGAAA
T1 sequence (P33533 whole entry): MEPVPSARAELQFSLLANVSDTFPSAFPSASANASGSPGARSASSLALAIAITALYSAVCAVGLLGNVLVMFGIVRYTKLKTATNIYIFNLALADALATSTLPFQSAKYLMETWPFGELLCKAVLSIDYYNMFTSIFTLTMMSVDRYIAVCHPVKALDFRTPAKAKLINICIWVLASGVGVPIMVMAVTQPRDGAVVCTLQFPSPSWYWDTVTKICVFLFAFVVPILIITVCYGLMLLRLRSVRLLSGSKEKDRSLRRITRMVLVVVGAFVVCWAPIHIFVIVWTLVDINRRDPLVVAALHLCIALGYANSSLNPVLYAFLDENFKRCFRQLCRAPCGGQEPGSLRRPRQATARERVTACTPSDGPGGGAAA
T4 sequence (P35372 whole entry): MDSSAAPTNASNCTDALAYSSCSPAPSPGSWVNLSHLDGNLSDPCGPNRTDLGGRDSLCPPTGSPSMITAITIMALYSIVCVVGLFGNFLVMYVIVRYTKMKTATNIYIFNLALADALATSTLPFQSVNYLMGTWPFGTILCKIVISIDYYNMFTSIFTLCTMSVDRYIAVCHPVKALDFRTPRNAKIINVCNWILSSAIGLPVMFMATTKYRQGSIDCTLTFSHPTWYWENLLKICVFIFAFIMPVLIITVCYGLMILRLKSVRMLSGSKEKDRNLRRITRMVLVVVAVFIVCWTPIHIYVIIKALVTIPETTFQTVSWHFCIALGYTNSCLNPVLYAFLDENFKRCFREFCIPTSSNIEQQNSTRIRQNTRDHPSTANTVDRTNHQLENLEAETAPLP

In the case of `O=CNc1cccc2c1Oc1ccccc1C2=C1CC2CCC(C1)N2` [Cpd 44, N-[9-(8-Azabicyclo[3.2.1]oct-3-ylidene)-9H-xanthen-4-yl]-formamide], the results for the Ki at delta opioid receptor (setting [3]) and at mu opioid receptor (setting [4]) were 19.2 nM and 45.2 nM, respectively. This compound also registered an EC50 in test [1] (delta GTPγS binding EC50 (nM)) of 7.03 nM.
In the case of `Oc1cccc2c1Oc1ccccc1C2=C1CCNCC1` [Cpd 16, 9-Piperidin-4-ylidene-9H-xanthen-4-ol], the Ki at delta opioid receptor (setting [3]) came to 15.1 nM; on mu opioid receptor (setting [4]) it was 776 nM. Also, the EC50 in test [1] (delta GTPγS binding EC50 (nM)) amounted to 964 nM.
In the case of `Oc1cccc2c1Oc1ccccc1C2=C1CC2CCC(C1)N2CC1CC1` [Cpd 26], the Ki was 5.43 nM on delta opioid receptor (setting [5]) and 65.9 nM on mu opioid receptor (setting [6]). The figures for the EC50 in test [1] (setting [7]) and in test [2] (setting [8]) were 194 nM and > 10000 nM, respectively.
On to `Oc1cccc2c1Oc1ccccc1C2=C1CC2CCCC(C1)N2` [Cpd 20, 9-(9-Azabicyclo[3.3.1]non-3-ylidene)-9H-xanthen-4-ol], for which the Ki on delta opioid receptor (setting [3]) was found to be 20.2 nM; on mu opioid receptor (setting [4]) it was 32.6 nM. Further, the results for the EC50 in test [1] (delta GTPγS binding EC50 (nM)) and in test [2] were 180 nM and 7080 nM, respectively.
`Oc1cccc2c1Oc1ccccc1C2=C1CC2CCC(C1)N2Cc1cccnc1` [Cpd 31, 9-(8-pyridin-3-ylmethyl-8-azabicyclo[3.2.1]oct-3-ylidene)-9H-xanthen-4-ol]: the values for the Ki at delta opioid receptor (setting [3]) and at mu opioid receptor (setting [4]) were 0.028 nM and 1.23 nM, respectively. Besides, the EC50 was found to be 134 nM in test [1] (setting [7]) and 8090 nM in test [2] (setting [8]).
On to `CC=C(C)CN1C2CCC1CC(=C1c3ccccc3Oc3c(O)cccc31)C2` [Cpd 27], for which the Ki at delta opioid receptor (setting [5]) was 0.35 nM; on mu opioid receptor (setting [6]) it was 2.03 nM. For the same compound, the EC50 in test [1] (setting [7]) was 9.8 nM; in test [2] (setting [8]), > 10000 nM.
For `O=C(Nc1ccccc1)c1cccc2c1Oc1ccccc1C2=C1CC2CCC(C1)N2` (single isomer, unassigned) [Cpd 48, 9-(8-Azabicyclo[3.2.1]oct-3-ylidene)-9H-xanthene-4-carboxylic acid phenylamide], the values for the Ki at delta opioid receptor (setting [3]) and on mu opioid receptor (setting [4]) were 3.71 nM and 3.58 nM, respectively. Moreover, in test [1] (setting [7]), the EC50 amounted to 101 nM.
With `O=C(NCc1ccccc1)c1cccc2c1Oc1ccccc1C2=C1CC2CCC(C1)N2` [Cpd 13, 9-(8-Azabicyclo[3.2.1]oct-3-ylidene)-9H-xanthene-4-carboxylic acid benzylamide], on mu opioid receptor (setting [4]), the Ki is 15 nM and 12.7 nM. The EC50 in test [1] (delta GTPγS binding EC50 (nM)) is 5.68 nM; in test [2], 717 nM. For the same compound, the “delta GTPγS binding Rel Eff” value in test [1] amounted to 0.87. Further, the “mu GTPγS binding Rel Eff” value in test [2] (CHO-hMOR cell membranes) is on record as 0.67.
With `Oc1cccc2c1Oc1ccccc1C2=C1CC2CCC(C1)N2Cc1ccccc1` (single isomer, unassigned) [Cpd 46, 9-(8-Benzyl-8-azabicyclo[3.2.1]oct-3-ylidene)-9H-xanthen-4-ol], the results for the Ki on delta opioid receptor (setting [3]) and on mu opioid receptor (setting [4]) were 0.03 nM and 0.19 nM, respectively. The EC50 in test [1] (setting [7]) was determined as 10.2 nM.
For the compound `Oc1cccc2c1Oc1ccccc1C2=C1CC2CCC(C1)N2Cc1ccccc1` (single isomer, unassigned) [Cpd 45, 9-(8-Benzyl-8-azabicyclo[3.2.1]oct-3-ylidene)-9H-xanthen-4-ol], the Ki at delta opioid receptor (setting [3]) is 9.62 nM; at mu opioid receptor (setting [4]) it was 11.4 nM. In addition, in test [1] (delta GTPγS binding EC50 (nM)), the EC50 amounted to 1420 nM.
Turning to `O=C(NCCc1ccccc1)c1cccc2c1Oc1ccccc1C2=C1CC2CCC(C1)N2` [Cpd 14, 9-(8-Azabicyclo[3.2.1]oct-3-ylidene)-9H-xanthene-4-carboxylic acid phenethyl-amide], the Ki on mu opioid receptor (setting [4]) was 44 nM and 36.2 nM. Moreover, the EC50 in test [1] (delta GTPγS binding EC50 (nM)) is 10.4 nM; in test [2], 997 nM. Moreover, in test [1], the “delta GTPγS binding Rel Eff” value stood at 0.92. In test [2] (CHO-hMOR cell membranes), the “mu GTPγS binding Rel Eff” value is 0.54.
Regarding `CNC(=O)c1cccc2c1Oc1ccccc1C2=C1CC2CCC(C1)N2` [Cpd 10, 9-(8-Azabicyclo[3.2.1]oct-3-ylidene)-9H-xanthene-4-carboxylic acid methylamide], the Ki on mu opioid receptor (setting [4]) is 27 nM and 51 nM. The EC50 was 617 nM in test [1] (delta GTPγS binding EC50 (nM)) and > 10000 nM in test [2].
On to `NC(=O)c1cccc2c1Oc1ccccc1C2=C1CC2CCC(C1)N2` (single isomer, unassigned) [Cpd 39, 9-(8-Azabicyclo[3.2.1]oct-3-ylidene)-9H-xanthene-4-carboxylic acid amide], for which the Ki on delta opioid receptor (setting [3]) came to 31.9 nM; at mu opioid receptor (setting [4]) it was 96.4 nM. The EC50 in test [1] (delta GTPγS binding EC50 (nM)) is 1240 nM.
On to `Oc1cccc2c1Oc1ccccc1C2=C1CC2CCC(C1)N2Cc1ccoc1` (single isomer, unassigned) [Cpd 58, 9-(8-Furan-3-ylmethyl-8-azabicyclo[3.2.1]oct-3-ylidene)-9H-xanthen-4-ol], for which the Ki on delta opioid receptor (setting [3]) worked out at 0.1 nM; on mu opioid receptor (setting [4]), 0.45 nM. For the same compound, the EC50 in test [1] (setting [7]) is 2.6 nM.
On to `Oc1cccc2c1Oc1ccccc1C2=C1CC2CCC(C1)N2Cc1cccnc1` (single isomer, unassigned) [Cpd 50, 9-(8-Pyridin-3-ylmethyl-8-azabicyclo[3.2.1]oct-3-ylidene)-9H-xanthen-4-ol], for which the results for the Ki at delta opioid receptor (setting [3]) and at mu opioid receptor (setting [4]) were 0.08 nM and 0.68 nM, respectively. Further, the EC50 in test [1] (setting [7]) amounted to 218 nM.
Turning to `NC(=O)c1cccc2c1Sc1ccccc1C2=C1CC2CCC(C1)N2` [Cpd 63, 9-(8-Azabicyclo[3.2.1]oct-3-ylidene)-9H-thioxanthene-4-carboxylic acid amide], the Ki at delta opioid receptor (setting [3]) came to 0.71 nM; at mu opioid receptor (setting [4]), 3.31 nM. Moreover, the EC50 in test [1] (delta GTPγS binding EC50 (nM)) came out at 2.7 nM.
Consider `CN1C2CCC1CC(=C1c3ccccc3Oc3c(O)cccc31)C2` (single isomer, unassigned) [Cpd 51, 9-(8-Methyl-8-azabicyclo[3.2.1]oct-3-ylidene)-9H-xanthen-4-ol], for which the Ki on delta opioid receptor (setting [3]) is 11.2 nM; on mu opioid receptor (setting [4]), 138 nM. The compound further returned an EC50 in test [1] (delta GTPγS binding EC50 (nM)) of 59.2 nM.
Consider `O=C(NCCc1ccccc1)c1cccc2c1Oc1ccccc1C2=C1CC2CCC(C1)N2` (single isomer, unassigned) [Cpd 56, 9-(8-Azabicyclo[3.2.1]oct-3-ylidene)-9H-xanthene-4-carboxylic acid phenethylamide], for which the Ki was found to be 49.6 nM on delta opioid receptor (setting [3]) and 6.96 nM on mu opioid receptor (setting [4]). The EC50 in test [1] (setting [7]) amounted to 40.1 nM.
